The numbers were not newly measured in patent US12268699B2, “Transdermal delivery of tetrahydrocannabinol” (Pike Therapeutics Inc., priority 2019, dated 2025), which cites them from elsewhere.

The subject of data set [1] is CB2 receptor over CB1. The conditions noted are these: given as ×, -fold or times.
In data set [2] the test system is complete Freund's adjuvant-induced monoarthritic knee join mode. The following applies: transdermal.
For data set [3], the target named is CB2 (Homo sapiens, UniProt P34972).
Data set [4] addresses CB1 (Homo sapiens, UniProt P21554).
The conditions of data set [5]: in 96 hrs. with 6% Brij O20.

Molecules are shown by their SMILES. pKi: −log10 of the molar value. Like-named read-outs stand apart in the source and are kept apart here.

Chain of CB1 (P21554 whole entry, species assumed): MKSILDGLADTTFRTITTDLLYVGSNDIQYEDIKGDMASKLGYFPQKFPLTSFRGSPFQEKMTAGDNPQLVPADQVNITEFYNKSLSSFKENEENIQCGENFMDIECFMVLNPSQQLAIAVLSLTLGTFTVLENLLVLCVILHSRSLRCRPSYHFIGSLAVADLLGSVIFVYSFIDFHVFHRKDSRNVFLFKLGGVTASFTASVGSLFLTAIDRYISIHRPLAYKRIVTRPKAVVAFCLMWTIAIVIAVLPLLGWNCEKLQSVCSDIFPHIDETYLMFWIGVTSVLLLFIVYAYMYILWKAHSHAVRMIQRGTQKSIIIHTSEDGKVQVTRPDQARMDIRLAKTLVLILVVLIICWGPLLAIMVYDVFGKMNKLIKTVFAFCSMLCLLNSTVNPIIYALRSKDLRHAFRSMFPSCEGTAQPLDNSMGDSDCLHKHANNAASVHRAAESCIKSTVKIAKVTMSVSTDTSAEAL
Chain of CB2 (P34972 whole entry, species assumed): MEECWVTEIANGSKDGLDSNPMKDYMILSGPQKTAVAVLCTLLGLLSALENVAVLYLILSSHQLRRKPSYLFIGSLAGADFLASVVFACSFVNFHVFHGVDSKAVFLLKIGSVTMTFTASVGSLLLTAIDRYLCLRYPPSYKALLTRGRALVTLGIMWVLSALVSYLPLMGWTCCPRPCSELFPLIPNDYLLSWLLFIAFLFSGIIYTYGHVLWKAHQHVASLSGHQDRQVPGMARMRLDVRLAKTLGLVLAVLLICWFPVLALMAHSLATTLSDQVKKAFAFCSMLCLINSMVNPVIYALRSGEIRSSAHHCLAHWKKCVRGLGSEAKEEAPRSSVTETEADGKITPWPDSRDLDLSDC

Take `CCCCCCC(C)(C)c1cc(O)c2c(c1)oc(=O)c1ccc(OC)cc12` [AM-1710]: in data set [1], the “selectivity for CB2 over CB1” value is listed as 54.
Take `C=C(C)[C@@H]1CCC(C)=C[C@H]1c1c(O)cc(CCCCC)cc1O` [CBD, 2-[(1R,6R)-6-isopropenyl-3-methylcyclohex-2-en-1-yl]-5-pentylbenzene-1,3-diol]: the knee-joint swelling entry is recorded as “reduce knee-joint swelling” in data set [2] (dose of 6.2 mg/day) and “failed to yield any additional improvement” in data set [2] (dose of 62 mg/day).
Take `CCCn1cc(C(=O)c2ccc(C)c3ccccc23)c2ccccc21` [JWH-120]: in data set [1], the “selectivity for CB2 over CB1” value is 173.
As to `CCCn1c(C)c(C(=O)c2ccc(C)c3ccccc23)c2ccccc21` [JWH-148], in data set [1], the “selectivity for CB2 over CB1” value is recorded as “more than 8”.
As to `CCCCCCC(C)(C)c1cc(OC)c2c(c1)OC(C)(C)C1CCC(O)CC21` (stereo not drawn) [JWH-350, 11-nor-1-methoxy-3-(1′,1′-dimethylheptyl)-9α-hydroxyhexahydrocannabinol], the “selectivity for CB2 over CB1” value in data set [1] is given as 33.
Turning to `CCCCCn1cc(C(=O)c2ccc(Cl)c3ccccc23)c2ccccc21` [JWH-398], the pKi is 8.55 in data set [3] and 8.64 in data set [4].
For `CCCCCn1cc(C(=O)c2cccc3cccc(Br)c23)c2ccccc21` [JWH-424], the negative logarithm of the Ki (pKi) is 8.26 in data set [3] and 7.68 in data set [4].
As to `CCCCCc1cc(O)c2c(c1)OC(C)(C)[C@@H]1CCC(C)=C[C@@H]21` [naturally derived delta-9-THC, (−)-(6aR,10aR)-6,6,9-Trimethyl-3-pentyl-6a,7,8,10a-tetrahydro-6H-benzo[c]chromen-1-ol], the skin permeability in data set [5] was 20 µg.

In general, pKi refers to the negative decadic logarithm of the Ki, by convention in mol/L.
